From article PMC9687610, “Adenosine-Mimicking Derivatives of 3-Aminopyrazine-2-Carboxamide: Towards Inhibitors of Prolyl-tRNA Synthetase with Antimycobacterial Activity” (Biomolecules, 2022)
≈ marks a conversion by molar mass, not a printed value. Read-outs that look alike come from different tables or passages of the source.

Key:
[1] = tested on: Candida krusei CCM 8271 (ATCC 6258); test: Antifungal microdilution broth (EUCAST), CK; assay type: cell-based; conditions: Pichia kudriavzevii; read after 24 h; read-out: CK MIC
[2] = tested on: Aspergillus fumigatus ATCC 204305; test: Antifungal microdilution broth (EUCAST), AF; assay type: cell-based; conditions: Aspergillus fumigatus, ATCC204305; read after 24 h; read-out: AF MIC
[3] = tested on: Klebsiella pneumoniae CCM 4415 (ATCC 10031); test: Antibacterial microdilution broth (EUCAST), KP; conditions: read after 24 h
[4] = tested on: Staphylococcus aureus subsp. aureus methicillin-resistant (MRSA) CCM 4750 (ATCC 43300); test: Antibacterial microdilution broth (EUCAST), MRSA; assay type: cell-based; conditions: Staphylococcus aureus; read after 24 h; read-out: MRSA MIC
[5] = tested on: Candida tropicalis CCM 8264 (ATCC 750); test: Antifungal microdilution broth (EUCAST), CT; assay type: cell-based; conditions: Candida tropicalis; read after 24 h; read-out: CT MIC
[6] = tested on: Pseudomonas aeruginosa CCM 3955 (ATCC 27853); test: Antibacterial microdilution broth (EUCAST), PA; assay type: cell-based; conditions: Pseudomonas aeruginosa; read after 24 h; read-out: PA MIC
[7] = tested on: Candida albicans CCM 8320 (ATCC 24433); test: Antifungal microdilution broth (EUCAST), CA; assay type: cell-based; conditions: Candida albicans; read after 24 h; read-out: CA MIC
[8] = tested on: Trichophyton interdigitale CCM 8377 (ATCC 9533); test: Antifungal microdilution broth (EUCAST), TI; assay type: cell-based; conditions: Trichophyton interdigitale, 72 h, read-out: TI MIC
[9] = tested on: Mycobacterium tuberculosis H37Ra ITM-M006710 (ATCC 9431); test: Microplate Alamar Blue Assay (MABA), Mtb H37Ra; assay type: cell-based; conditions: Mycobacterium tuberculosis, 120 h, pH 6.6, MABA, Middlebrook 7H9 broth pH 6.6, resazurin after 120 h; read-out: Mtb H37Ra MIC
[10] = tested on: Aspergillus flavus CCM 8363; test: Antifungal microdilution broth (EUCAST), AFla; assay type: cell-based; conditions: Aspergillus flavus, CCM8363; read after 24 h; read-out: AFla MIC
[11] = tested on: Mycobacterium smegmatis DSM 43465 (ATCC 607); test: Microplate Alamar Blue Assay (MABA), M. smegmatis; assay type: cell-based; conditions: Mycolicibacterium smegmatis, read-out: M. smegmatis MIC
[12] = tested on: HepG2 human hepatocellular carcinoma cells; test: In vitro HepG2 cytotoxicity (CellTiter 96); conditions: Homo sapiens, HepG2, 24 h, read-out: HepG2 IC50, 24 h incubation; * limit = highest evaluated concentration (precipitation in medium); ** over the 1000 µM limit
[13] = tested on: Candida parapsilosis CCM 8260 (ATCC 22019); test: Antifungal microdilution broth (EUCAST), CP; assay type: cell-based; conditions: Lodderomyces parapsilosis; read after 24 h; read-out: CP MIC
[14] = tested on: Enterococcus faecalis CCM 4224 (ATCC 29212); test: Antibacterial microdilution broth (EUCAST), EF; assay type: cell-based; conditions: Enterococcus faecalis; read after 24 h; read-out: EF MIC
[15] = tested on: Staphylococcus epidermidis CCM 4418 (ATCC 12228); test: Antibacterial microdilution broth (EUCAST), SE; assay type: cell-based; conditions: read after 24 h, read-out: SE MIC
[16] = tested on: Staphylococcus aureus subsp. aureus CCM 4223 (ATCC 29213); test: Antibacterial microdilution broth (EUCAST), SA; assay type: cell-based; conditions: Staphylococcus aureus; read after 24 h; read-out: SA MIC
[17] = tested on: M. aurum DSM 43999 (ATCC 23366); test: Microplate Alamar Blue Assay (MABA), M. aurum; assay type: cell-based; conditions: Mycolicibacterium aurum, read-out: M. aurum MIC
[18] = tested on: Acinetobacter baumannii DSM 30007 (ATCC 19606); test: Antibacterial microdilution broth (EUCAST), ACI; assay type: cell-based; conditions: Acinetobacter baumannii; read after 24 h; read-out: ACI MIC
[19] = tested on: Escherichia coli CCM 3954 (ATCC 25922); test: Antibacterial microdilution broth (EUCAST), EC; assay type: cell-based; conditions: Escherichia coli; read after 24 h; read-out: EC MIC
[20] = tested on: Lichtheimia corymbifera CCM 8077; test: Antifungal microdilution broth (EUCAST), LC; assay type: cell-based; conditions: Lichtheimia corymbifera, CCM8077; read after 24 h; read-out: LC MIC

SMILES	MIC [1]	MIC [2]	KP MIC [3]	MIC [4]	MIC [5]	MIC [6]	MIC [7]	MIC [8]	MIC [9]	MIC [10]	MIC ([11]; MABA, resazurin after 48 h)	IC50 [12]	MIC [13]	MIC [14]	MIC [15]	melting point	MIC [16]	MIC [18]	MIC [19]	MIC [20]	other results
CCCC(=O)Nc1nccnc1C(N)=O [Compound 29]	> 500 µM	> 500 µM	> 500 µM	> 500 µM	> 500 µM	> 500 µM	> 500 µM	> 500 µM	≥ 500 µg/mL	> 500 µM	≥ 500 µg/mL	> 1000 µM	> 500 µM	> 500 µM	> 500 µM	158.7 to 159.5 °C	> 500 µM	> 500 µM	> 500 µM	> 500 µM	MIC ([17]; MABA, resazurin after 72 h): ≥ 500 µg/mL
NC(=O)c1nccnc1NC(=O)c1ccccc1C(F)(F)F [Compound 20]	> 500 µM	> 500 µM	> 500 µM	> 500 µM	> 500 µM	> 500 µM	> 500 µM	> 500 µM	500 µg/mL (≈ 1610 µM)	> 500 µM	≥ 500 µg/mL	> 250 µM	> 500 µM	> 500 µM	> 500 µM	201.5 to 202.4 °C	> 500 µM	> 500 µM	> 500 µM	> 500 µM	MIC ([17]; MABA, resazurin after 72 h): ≥ 500 µg/mL
NC(=O)c1nccnc1NC(=O)c1ccc([N+](=O)[O-])cc1 [Compound 21, 3-(4-nitrobenzamido)pyrazine-2-carboxamide]	> 125 µM	> 125 µM	> 125 µM	> 125 µM	> 125 µM	> 125 µM	> 125 µM	> 125 µM	250 µg/mL (≈ 870 µM)	> 125 µM	250 µg/mL (≈ 870 µM)	> 100 µM	> 125 µM	> 125 µM	> 125 µM	> 300 °C	> 125 µM	> 125 µM	> 125 µM	> 125 µM	MIC ([17]; MABA, resazurin after 72 h): ≥ 500 µg/mL
NC(=O)c1nccnc1NC(=O)c1cc(Cl)cc(Cl)c1 [Compound 19]	> 500 µM	> 500 µM	> 500 µM	> 500 µM	> 500 µM	> 500 µM	> 500 µM	> 500 µM	≥ 62.5 µg/mL	> 500 µM	–	> 250 µM	> 500 µM	> 500 µM	> 500 µM	> 300 °C	> 500 µM	> 500 µM	> 500 µM	> 500 µM	MIC ([11]; 48 h): ≥ 62.5 µg/mL; MIC ([17]; 72 h): ≥ 62.5 µg/mL
CNC(=O)c1nccnc1NC(=O)c1ccc(Cl)cc1 [Compound 34]	> 125 µM	> 125 µM	> 125 µM	> 125 µM	> 125 µM	> 125 µM	> 125 µM	> 125 µM	≥ 500 µg/mL	> 125 µM	≥ 500 µg/mL	> 100 µM	> 125 µM	> 125 µM	> 125 µM	204.2 to 205.1 °C	> 125 µM	> 125 µM	> 125 µM	> 125 µM	MIC ([17]; MABA, resazurin after 72 h): ≥ 500 µg/mL
CCCCCC(=O)Nc1nccnc1C(N)=O [Compound 30]	> 500 µM	> 500 µM	> 500 µM	> 500 µM	> 500 µM	> 500 µM	> 500 µM	> 500 µM	≥ 500 µg/mL	> 500 µM	≥ 500 µg/mL	560 µM	> 500 µM	> 500 µM	> 500 µM	138.4 to 139 °C	> 500 µM	> 500 µM	> 500 µM	> 500 µM	MIC ([17]; MABA, resazurin after 72 h): ≥ 250 µg/mL
